Measurements: patent US6620849B2, “Potassium channel inhibitors” (ICAFEN, Inc., priority 2000, dated 2003)
Where two headings read alike, the source gives them in different places.

Target: T1, Kv1.5 potassium channel (Homo sapiens, UniProt P22460)
T1 construct: expressed in transfected cells
Assay: Whole-cell patch clamp electrophysiological recording of Kv1.5 currents in CHO cells
Assay type: cell-based
Settings: CHO cells stably expressing Kv1.5, whole-cell voltage clamp, holding potential −80 mV, one depolarization every 10 seconds
Experimental: Electrophysiological recordings of potassium currents in Chinese hamster ovary cells stably expressing the gene construct for the Kv1.5 potassium channel subunit were performed using the whole cell configuration of the patch clamp technique (Hamill et al., Pflugers Archiv 391:85, 1981). Cell lines expressing Kv1.5 were prepared using standard techniques known to those skilled in the art. Cells were plated on glass coverslips at a density of 2×10^4 cells/coverslip and used within 24-48 hours. Solutions used for electrophysiological recordings were as follows. Extracellular bathing solutions typically contain (in mM) 132 NaCl, 5.4 KCl, 1.8 CaCl2, 0.8 MgCl2, 10 HEPES, 5 glucose at pH 7.3. Electrode pipette solutions (intracellular solution) for measuring Kv1.5 typically contain (in mM) 100 KF, 40 KCl, 5 NaCl, 2 MgCl2, 5 EGTA, 10 HEPES and 5 glucose at pH 7.4, 295 mOsm and has a resistance of about 1-2 MΩ. The coverslips were placed in a small chamber (volume ˜200 μl) on the mechanical stage of an inverted microscope and perfused (approximately 2 ml/min) with extracellular recording solution. Drug was applied using a series of narrow-bore glass capillary tubes (inner diameter ˜100 μm) positioned approximately 200 μm from the cell.
As soon as the current recording was stable, a compound representative of the present invention was superfused over the cell until steady-state block was observed. Using this technique, the effects of the compound on peak and steady-state current were determined at progressively increasing compound concentrations.
The testing results of selected compounds from Table 2 using this assay and the techniques described above are reported in Table 3 as the percent inhibition of Kv1.5 potassium channel currents at a single concentration of 0.1 μM.

[1] = read-out: Peak Current Inhibition at 0.1 μM (%)
[2] = read-out: Steady-state Current Inhibition at 0.1 μM (%)

T1 sequence (P22460 whole entry): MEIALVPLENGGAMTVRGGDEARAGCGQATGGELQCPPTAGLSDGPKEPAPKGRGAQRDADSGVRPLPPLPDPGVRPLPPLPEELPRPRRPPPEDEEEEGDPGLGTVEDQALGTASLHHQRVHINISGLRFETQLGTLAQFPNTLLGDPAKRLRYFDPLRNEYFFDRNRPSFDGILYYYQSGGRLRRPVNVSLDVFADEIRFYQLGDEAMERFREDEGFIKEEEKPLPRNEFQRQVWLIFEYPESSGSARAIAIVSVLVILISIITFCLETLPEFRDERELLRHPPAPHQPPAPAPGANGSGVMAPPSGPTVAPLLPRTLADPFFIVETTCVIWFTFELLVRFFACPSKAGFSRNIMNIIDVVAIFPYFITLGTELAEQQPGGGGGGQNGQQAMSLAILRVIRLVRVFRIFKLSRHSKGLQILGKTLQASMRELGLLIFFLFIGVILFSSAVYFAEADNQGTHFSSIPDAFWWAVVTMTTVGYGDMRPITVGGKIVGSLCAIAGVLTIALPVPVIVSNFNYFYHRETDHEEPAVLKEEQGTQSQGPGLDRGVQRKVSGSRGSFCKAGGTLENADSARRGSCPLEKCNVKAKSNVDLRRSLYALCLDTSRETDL

| inhibition at 0.1 µM [1] [%] | inhibition at 0.1 µM [2] [%] | SMILES |
| --- | --- | --- |
| 64 | 76 | Cn1ccnc1CN(C(=O)[C@@H]1C[C@H]1c1ccccc1)c1ccc2c(c1)[C@@H](NS(=O)(=O)c1ccc(Cl)cc1)CCC2 [Example 4] |
| 39 | 50 | Cc1ncc(CN(C(=O)C2CC2c2ccccc2)c2ccc3c(c2)C(NS(=O)(=O)c2ccc(F)cc2)CCC3)n1CC(C)C (stereo not shown) [Example 5] |
| 72 | 78 | Cn1ccnc1CN(C(=O)[C@@H]1C[C@H]1c1ccccc1)c1ccc2c(c1)[C@@H](NS(=O)(=O)c1ccccc1)CCC2 [Example 6] |
| 43 | 68 | Cc1cccc(CN(C(=O)C2CC2c2ccccc2)c2ccc3c(c2)C(NS(=O)(=O)c2ccccc2)CCC3)n1 (stereo not shown) [Example 7] |
| 60 | 82 | Cc1cccc(CN(C(=O)C2CC2c2ccccc2)c2ccc3c(c2)C(NS(=O)(=O)c2ccccc2Cl)CCC3)n1 (stereo not shown) [Example 9] |
| 24 | 53 | Cc1cccc(CN(C(=O)C2CC2c2ccccc2)c2ccc3c(c2)C(NS(=O)(=O)c2ccc(F)cc2)CCC3)n1 (stereo not shown) [Example 10] |
| 57 | 96 | Cc1cccc(CN(C(=O)[C@@H]2C[C@H]2c2ccccc2)c2ccc3c(c2)[C@@H](NS(=O)(=O)c2ccccc2)CCC3)n1 [Example 12] |
| 45 | 82 | Cc1cccc(CN(C(=O)[C@@H]2C[C@H]2c2ccccc2)c2ccc3c(c2)[C@@H](NS(=O)(=O)c2ccc(F)cc2)CCC3)n1 [Example 13] |
| 42 | 81 | Cc1cccc(CN(C(=O)[C@@H]2C[C@H]2c2ccccc2)c2ccc3c(c2)[C@@H](NS(=O)(=O)c2cccc(Cl)c2)CCC3)n1 [Example 14] |
| 42 | 80 | Cc1cccc(CN(C(=O)[C@@H]2C[C@H]2c2ccccc2)c2ccc3c(c2)[C@@H](NS(=O)(=O)c2ccc(Cl)cc2)CCC3)n1 [Example 16] |
| 35 | 69 | Cn1ccnc1CN(C(=O)[C@H]1C[C@@H]1c1ccc(Cl)cc1)c1ccc2c(c1)[C@@H](NS(=O)(=O)c1ccc(F)cc1)CCC2 [Example 25] |
| 68 | 78 | Cn1ccnc1CN(C(=O)[C@@H]1C[C@H]1c1ccc(F)cc1)c1ccc2c(c1)[C@@H](NS(=O)(=O)c1ccccc1F)CCC2 [Example 29] |
| 80 | 93 | Cn1ccnc1CN(C(=O)[C@@H]1C[C@H]1c1ccc(F)cc1)c1ccc2c(c1)[C@@H](NS(=O)(=O)c1cccc(F)c1)CCC2 [Example 30] |
| 70 | 84 | Cn1ccnc1CN(C(=O)[C@@H]1C[C@H]1c1ccc(F)cc1)c1ccc2c(c1)[C@@H](NS(=O)(=O)c1ccc(F)cc1)CCC2 [Example 31] |
| 70 | 91 | Cn1ccnc1CN(C(=O)[C@@H]1C[C@H]1c1ccc(F)cc1)c1ccc2c(c1)[C@@H](NS(=O)(=O)c1ccc(F)c(Cl)c1)CCC2 [Example 32] |
| 50 | 69 | Cc1cccc(CN(C(=O)[C@@H]2C[C@H]2c2ccc(C(F)(F)F)cc2)c2ccc3c(c2)[C@@H](NS(=O)(=O)c2ccccc2F)CCC3)n1 [Example 39] |
| 47 | 72 | Cn1ccnc1CN(C(=O)[C@@H]1C[C@H]1c1ccc(C(F)(F)F)cc1)c1ccc2c(c1)[C@@H](NS(=O)(=O)c1ccccc1F)CCC2 [Example 43] |
| 71 | 92 | Cn1ccnc1CN(C(=O)[C@@H]1C[C@H]1c1ccc(Cl)cc1)c1ccc2c(c1)[C@@H](NS(=O)(=O)c1ccccc1)CCC2 [Example 44] |
| 70 | 95 | CCc1ccc(S(=O)(=O)N[C@H]2CCCc3ccc(N(Cc4nccn4C)C(=O)[C@@H]4C[C@H]4c4ccc(Cl)cc4)cc32)cc1 [Example 48] |
| 57 | 82 | Cn1ccnc1CN(C(=O)[C@H]1C[C@@H]1c1ccc(Cl)cc1)c1ccc2c(c1)[C@H](NS(=O)(=O)c1ccccc1)CCC2 [Example 54] |
